Experimental data reported in patent US20260345596A1, “TREATMENT OF LOCALLY ADVANCED OR METASTATIC UROTHELIAL CARCINOMA WITH ERDAFINITIB” (priority 2023, published 2026).

Assay: Study BLC3001 (NCT03390504, THOR) Cohort 1: safety, adverse events, laboratory abnormalities and exposure
Settings: for Central serous retinopathy / Chorioretinopathy / Detachment of macular retinal pigment epithelium / Detachment of retinal pigment epithelium / Eye disorders (excluding central serous retinopathy) / Macular detachment / Nail disorders / Retinopathy / Skin disorders / Subretinal fluid: adverse events of interest; for Hematuria / Hyponatremia / Urinary tract infection: serious adverse events, any cause

COc1cc(OC)cc(N(CCNC(C)C)c2ccc3ncc(-c4cnn(C)c4)nc3c2)c1 [Erdafitinib, N-(3,5-dimethoxyphenyl)-N′-(1-methylethyl)-N-[3-(1-methyl-1H-pyrazol-4-yl)quinoxalin-6-yl]ethane-1,2-diamine]
20 (14.8) no. (%): Dry eye (Grade 1, treatment-emergent) | Stomatitis (Grade 1, treatment-related)
14 (10.4) no. (%): Decreased appetite (Grade 2, treatment-emergent) | Onycholysis (Grade 2, treatment-emergent) | Onycholysis (Grade 2, treatment-related)
9 (6.7) no. (%): Onycholysis (Grade 1, treatment-emergent) | Onychomadesis (Grade 1, treatment-emergent) | Onycholysis (Grade 1, treatment-related)
3 (2.2) no. (%): Detachment of retinal pigment epithelium (Grade 1) | Chorioretinopathy (Grade 2) | Dry eye (Grade 2, treatment-emergent) | Dry eye (Grade 2, treatment-related) | Central serous retinopathy (Grade ≥3) | Eye disorders (excluding central serous retinopathy) (Grade ≥3) | Hematuria (Grade ≥3) | Hyponatremia (Grade ≥3) | Aspartate aminotransferase increased (Grade ≥3, treatment-emergent) | Weight decreased (Grade ≥3, treatment-emergent)
2 (1.5) no. (%): Macular detachment (Grade 1) | Detachment of retinal pigment epithelium (Grade 2) | Retinopathy (Grade 2) | Hematuria (Grade 2) | Detachment of retinal pigment epithelium (Grade ≥3) | Asthenia (Grade ≥3, treatment-emergent) | Dry skin (Grade ≥3, treatment-emergent) | Nausea (Grade ≥3, treatment-emergent) | Onychomadesis (Grade ≥3, treatment-emergent)
19 (14.1) no. (%): Dry eye (Grade 1, treatment-related)
7 (5.2) no. (%): Alanine aminotransferase increased (Grade 2, treatment-related) | Nausea (Grade 2, treatment-related) | Hyperphosphatemia (Grade ≥3, treatment-emergent)
5 (3.7) no. (%): Chorioretinopathy (Grade 1) | Aspartate aminotransferase increased (Grade 2, treatment-emergent) | Aspartate aminotransferase increased (Grade 2, treatment-related)
6 (4.4) no. (%): Asthenia (Grade 1, treatment-emergent) | Palmar-plantar erythrodysesthesia syndrome (Grade 1, treatment-emergent) | Nausea (Grade 1, treatment-related) | Palmar-plantar erythrodysesthesia syndrome (Grade 1, treatment-related) | Dry skin (Grade 2, treatment-emergent) | Asthenia (Grade 2, treatment-related) | Dry skin (Grade 2, treatment-related) | Fatigue (Grade 2, treatment-related) | Urinary tract infection (Grade ≥3)
21 (15.6) no. (%): Aspartate aminotransferase increased (Grade 1, treatment-emergent)
0 no. (%): Detachment of macular retinal pigment epithelium (Grade 1) | Retinopathy (Grade 1) | Hematuria (Grade 1) | Hyponatremia (Grade 1) | Urinary tract infection (Grade 1) | Neutropenia (Grade 1, treatment-emergent) | Neutropenia (Grade 1, treatment-related) | Detachment of macular retinal pigment epithelium (Grade 2) | Macular detachment (Grade 2) | Hyponatremia (Grade 2) | Urinary tract infection (Grade 2) | Neutropenia (Grade 2, treatment-emergent) | Neutropenia (Grade 2, treatment-related) | Chorioretinopathy (Grade ≥3) | Macular detachment (Grade ≥3) | Retinopathy (Grade ≥3) | Subretinal fluid (Grade ≥3) | Constipation (Grade ≥3, treatment-emergent) | Dry eye (Grade ≥3, treatment-emergent) | Dry mouth (Grade ≥3, treatment-emergent) | Fatigue (Grade ≥3, treatment-emergent) | Neutropenia (Grade ≥3, treatment-emergent)
12 (8.9) no. (%): Central serous retinopathy (Grade 1) | Fatigue (Grade 1, treatment-emergent) | Weight decreased (Grade 1, treatment-emergent) | Fatigue (Grade 1, treatment-related) | Asthenia (Grade 2, treatment-emergent) | Constipation (Grade 2, treatment-emergent)
27 (20.0) no. (%): Alopecia (Grade 1, treatment-related) | Diarrhea (Grade 2, treatment-related)
24 (17.8) no. (%): Constipation (Grade 1, treatment-emergent)
4 (3.0) no. (%): Subretinal fluid (Grade 1) | Asthenia (Grade 1, treatment-related) | Alopecia (Grade 2, treatment-emergent) | Alopecia (Grade 2, treatment-related) | Anemia (Grade 2, treatment-related) | Constipation (Grade 2, treatment-related) | Alanine aminotransferase increased (Grade ≥3, treatment-emergent) | Decreased appetite (Grade ≥3, treatment-emergent) | Diarrhea (Grade ≥3, treatment-emergent) | Alanine aminotransferase increased (Grade ≥3, treatment-related) | Anemia (Grade ≥3, treatment-related)
45 (33.3) no. (%): Dry mouth (Grade 1, treatment-emergent)
17 (12.6) no. (%): Eye disorders (excluding central serous retinopathy) (Grade 2) | Onychomadesis (Grade 2, treatment-emergent) | Onychomadesis (Grade 2, treatment-related)
37 (27.4) no. (%): Eye disorders (excluding central serous retinopathy) (Grade 1)
18 (13.3) no. (%): Decreased appetite (Grade 1, treatment-emergent) | Alanine aminotransferase increased (Grade 1, treatment-related) | Aspartate aminotransferase increased (Grade 1, treatment-related)
31 (23.0) no. (%): Skin disorders (Grade 2) | Diarrhea (Grade 2, treatment-emergent) | Hyperphosphatemia (Grade 2, treatment-emergent) | Stomatitis (Grade 2, treatment-related)
11 (8.1) no. (%): Stomatitis (Grade ≥3, treatment-emergent)
50 (37.0) no. (%): Nail disorders (Grade 2)
1 (0.7) no. (%): Subretinal fluid (Grade 2) | Detachment of macular retinal pigment epithelium (Grade ≥3) | Alopecia (Grade ≥3, treatment-emergent) | Dysgeusia (Grade ≥3, treatment-emergent) | Alopecia (Grade ≥3, treatment-related)
16 (11.9) no. (%): Skin disorders (Grade ≥3)
49 (36.3) no. (%): Diarrhea (Grade 1, treatment-emergent)
70%: Central serous retinopathy events resolved by clinical cutoff (16 of 23 patients, any grade)
43 (31.9) no. (%): Diarrhea (Grade 1, treatment-related)
15 (11.1) no. (%): Decreased appetite (Grade 1, treatment-related) | Weight decreased (Grade 2, treatment-emergent) | Nail disorders (Grade ≥3)
44 (32.6) no. (%): Dry mouth (Grade 1, treatment-related)
71%: Ongoing central serous retinopathy events of grade 1 (5 of 7 ongoing)
13 (9.6) no. (%): Palmar-plantar erythrodysesthesia syndrome (Grade ≥3, treatment-emergent)
10 (7.4) no. (%): Anemia (Grade 1, treatment-emergent) | Nausea (Grade 1, treatment-emergent) | Decreased appetite (Grade 2, treatment-related) | Anemia (Grade ≥3, treatment-emergent)
28 (20.7) no. (%): Alanine aminotransferase increased (Grade 1, treatment-emergent) | Dysgeusia (Grade 1, treatment-emergent)
27 (20) no. (%): Skin disorders (Grade 1)
23 (17.0) no. (%): Dry skin (Grade 1, treatment-emergent)
32 (23.7) no. (%): Stomatitis (Grade 2, treatment-emergent)
22 (16.3) no. (%): Stomatitis (Grade 1, treatment-emergent) | Dry skin (Grade 1, treatment-related) | Palmar-plantar erythrodysesthesia syndrome (Grade 2, treatment-emergent) | Palmar-plantar erythrodysesthesia syndrome (Grade 2, treatment-related)
25 (18.5) no. (%): Nail disorders (Grade 1) | Dysgeusia (Grade 1, treatment-related)
8 (5.9) no. (%): Anemia (Grade 1, treatment-related) | Constipation (Grade 1, treatment-related) | Onychomadesis (Grade 1, treatment-related) | Central serous retinopathy (Grade 2) | Alanine aminotransferase increased (Grade 2, treatment-emergent) | Dry mouth (Grade 2, treatment-emergent) | Dysgeusia (Grade 2, treatment-emergent) | Fatigue (Grade 2, treatment-emergent) | Nausea (Grade 2, treatment-emergent) | Dry mouth (Grade 2, treatment-related) | Dysgeusia (Grade 2, treatment-related) | Onycholysis (Grade ≥3, treatment-emergent)
70 (51.9) no. (%): Hyperphosphatemia (Grade 1, treatment-emergent) | Hyperphosphatemia (Grade 1, treatment-related)
29 (21.5) no. (%): Alopecia (Grade 1, treatment-emergent) | Hyperphosphatemia (Grade 2, treatment-related)
